The values that follow come from patent publication US8168199B2, “Dipeptidyl peptidase IV inhibitors for the treatment of schizophrenia and depression” (priority 2000, dated 2012).

“Also recorded” adds a separate entry of the source.

In this experiment the test system is Male WistarF/Han (WF) rats. Kind of experiment: Response to novelty (Open field test), i.c.v. P32/98. The experiment is classed as in vivo, rat. The method, then:
Animals. Male WistarF/Han (WF) rats (Central Animal Laboratory, Hannover Medical School, Hannover, Germany, weighing 350-390 g, were housed in a sound-proof, temperature controlled (24.0±0.5° C.) room under specific pathogen free conditions with a 12/12 h dark/light cycle (lights on at 07.00 with illumination level of 80 Lux). Food (Altromin lab chow pellets) and tap water were available ad libitum. Under ketamine/xylasine (100/5 mg/kg, i.p.) anesthesia, the rats were fixed in a Kopf stereotaxic frame and implanted with cannulae (Plastic One, Inc., Roanoke, Va., USA) above the lateral ventricle. All research and animal care procedures were approved by the Lower Saxony district government (Hannover, Germany) and followed principles described in the European Community's Council Directive of 24 Nov. 1986 (86/609/EEC).
Surgery and i.c.v. application. For surgery, rats were anesthetized and prepared with i.c.v. cannulaes (coordinates: A: −0.7 mm caudal, L: 1.4 mm lateral to bregma; and V: 3.2 mm ventral to the skull surface; tooth bar +3.0 above ear bars) using standard stereotaxic procedures as described in detail elsewhere (von Hörsten et al., 1998a,b,c). […]
Response to novelty (Open field test). […] Spontaneous activity during a single continuous test session of 15 min was recorded using a video path analyzer system (E61-21 Video Path Analyser system, Coulbourn instruments, PA, U.S.A.). […] Furthermore, the total incidence of fecal boli was counted after each session and the incidence and duration (sec) of grooming behavior was simultaneously recorded from a video monitor by a person blind to the treatment of the animals (von Hörsten et al., 1998c).
Statistical analysis. For statistical analysis, behavioral raw data from every test minute were analyzed by two-way analyses of variance (ANOVA) for repeated measures (factors: treatment and time as a repeated measurement). Data obtained as totals from a session were analyzed by one-way (factor: treatment) ANOVA. […]

With `CC[C@H](C)[C@H](N)C(=O)N1CCSC1` [P32/98], the “activity in the open field (distance traveled)” value (i.c.v. 0.05, 5, 500 nmol, 60 min before test, four consecutive minutes, vs aCSF) is listed as “no effect on activity; also recorded: no significant effect”. Further, the “time spent close to the wall in the open field” value (i.c.v. 0.05, 5, 500 nmol, 60 min before test, sum of four consecutive minutes, vs aCSF) is on record as “dose-dependent reduction; also recorded: significant effect”. Moreover, the “dosage already effective on time spent close to the wall” value (i.c.v., open field) stood at 50 pmol.
